The values that follow come from patent US10407430B2, “Janus kinase 1 selective inhibitor and pharmaceutical use thereof” (YANG JI CHEMICAL CO., LTD., priority 2015, dated 2019).

Holding throughout (assay type): biochemical
The target of one assay is T1, Human JAK1 (Homo sapiens, UniProt P23458).
T1 construct: purchased Millipore, Germany
As to the kind of experiment: In-vitro kinase inhibition test, JAK1. As to conditions: for inhibition at 1 µM: compound at 1 uM, read-out: JAK1 kinase-phosphorylation inhibitory level (% inhibition); for JAK1/JAK2: ratio of % inhibition of JAK1 to JAK2 at 1 uM.

The target in a further assay is T2, Human JAK2 (Homo sapiens, UniProt O60674).
T2 construct: purchased Millipore, Germany
As to the kind of experiment: In-vitro kinase inhibition test, JAK2. Particulars: compound at 1 uM; read-out: JAK2 kinase-phosphorylation inhibitory level (% inhibition).

For a further assay, the target named is T3, Human JAK3 (Homo sapiens, UniProt P52333).
T3 construct: purchased Millipore, Germany
T3 sequence (P52333 1-1124): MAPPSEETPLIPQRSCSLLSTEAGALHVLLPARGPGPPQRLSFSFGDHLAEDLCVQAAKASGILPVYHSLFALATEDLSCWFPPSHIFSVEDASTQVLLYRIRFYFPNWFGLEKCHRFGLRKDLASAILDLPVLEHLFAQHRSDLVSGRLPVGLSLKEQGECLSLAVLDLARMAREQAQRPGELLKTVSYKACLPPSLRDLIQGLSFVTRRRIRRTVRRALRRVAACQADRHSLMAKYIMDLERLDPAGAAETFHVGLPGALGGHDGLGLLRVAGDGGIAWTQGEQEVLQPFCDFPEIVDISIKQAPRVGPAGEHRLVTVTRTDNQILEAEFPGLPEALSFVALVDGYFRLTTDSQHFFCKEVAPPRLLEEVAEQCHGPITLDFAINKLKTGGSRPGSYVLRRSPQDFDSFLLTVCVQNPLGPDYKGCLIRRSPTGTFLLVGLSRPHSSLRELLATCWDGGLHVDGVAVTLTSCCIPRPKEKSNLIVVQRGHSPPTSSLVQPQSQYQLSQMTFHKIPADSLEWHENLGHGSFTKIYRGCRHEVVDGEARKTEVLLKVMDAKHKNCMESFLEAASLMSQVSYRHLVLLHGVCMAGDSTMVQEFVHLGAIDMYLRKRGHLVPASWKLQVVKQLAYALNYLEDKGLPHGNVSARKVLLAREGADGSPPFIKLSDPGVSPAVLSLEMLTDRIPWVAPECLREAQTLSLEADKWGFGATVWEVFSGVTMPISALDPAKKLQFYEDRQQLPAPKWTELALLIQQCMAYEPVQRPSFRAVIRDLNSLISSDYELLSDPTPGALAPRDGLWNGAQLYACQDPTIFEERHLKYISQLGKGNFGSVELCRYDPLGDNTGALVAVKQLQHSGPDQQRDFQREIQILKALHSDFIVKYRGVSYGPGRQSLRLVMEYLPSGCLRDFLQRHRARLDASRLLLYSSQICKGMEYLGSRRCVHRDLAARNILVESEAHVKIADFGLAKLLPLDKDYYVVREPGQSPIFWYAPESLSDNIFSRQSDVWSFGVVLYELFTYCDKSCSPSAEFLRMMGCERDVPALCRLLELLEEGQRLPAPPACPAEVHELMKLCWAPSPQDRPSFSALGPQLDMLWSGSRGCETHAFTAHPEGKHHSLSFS
As to the kind of experiment: In-vitro kinase inhibition test, JAK3. Particulars: compound at 1 uM; read-out: JAK3 kinase-phosphorylation inhibitory level (% inhibition).

Another assay concerns the target T4, Human TYK2 (Homo sapiens, UniProt P29597).
T4 construct: purchased Millipore, Germany
Kind of assay: In-vitro kinase inhibition test, TYK2. Particulars: compound at 1 uM; read-out: TYK2 kinase-phosphorylation inhibitory level (% inhibition).

One may read the inhibition as the change of the read-out against control, counted positive when it falls.

T4 sequence (P29597 whole entry): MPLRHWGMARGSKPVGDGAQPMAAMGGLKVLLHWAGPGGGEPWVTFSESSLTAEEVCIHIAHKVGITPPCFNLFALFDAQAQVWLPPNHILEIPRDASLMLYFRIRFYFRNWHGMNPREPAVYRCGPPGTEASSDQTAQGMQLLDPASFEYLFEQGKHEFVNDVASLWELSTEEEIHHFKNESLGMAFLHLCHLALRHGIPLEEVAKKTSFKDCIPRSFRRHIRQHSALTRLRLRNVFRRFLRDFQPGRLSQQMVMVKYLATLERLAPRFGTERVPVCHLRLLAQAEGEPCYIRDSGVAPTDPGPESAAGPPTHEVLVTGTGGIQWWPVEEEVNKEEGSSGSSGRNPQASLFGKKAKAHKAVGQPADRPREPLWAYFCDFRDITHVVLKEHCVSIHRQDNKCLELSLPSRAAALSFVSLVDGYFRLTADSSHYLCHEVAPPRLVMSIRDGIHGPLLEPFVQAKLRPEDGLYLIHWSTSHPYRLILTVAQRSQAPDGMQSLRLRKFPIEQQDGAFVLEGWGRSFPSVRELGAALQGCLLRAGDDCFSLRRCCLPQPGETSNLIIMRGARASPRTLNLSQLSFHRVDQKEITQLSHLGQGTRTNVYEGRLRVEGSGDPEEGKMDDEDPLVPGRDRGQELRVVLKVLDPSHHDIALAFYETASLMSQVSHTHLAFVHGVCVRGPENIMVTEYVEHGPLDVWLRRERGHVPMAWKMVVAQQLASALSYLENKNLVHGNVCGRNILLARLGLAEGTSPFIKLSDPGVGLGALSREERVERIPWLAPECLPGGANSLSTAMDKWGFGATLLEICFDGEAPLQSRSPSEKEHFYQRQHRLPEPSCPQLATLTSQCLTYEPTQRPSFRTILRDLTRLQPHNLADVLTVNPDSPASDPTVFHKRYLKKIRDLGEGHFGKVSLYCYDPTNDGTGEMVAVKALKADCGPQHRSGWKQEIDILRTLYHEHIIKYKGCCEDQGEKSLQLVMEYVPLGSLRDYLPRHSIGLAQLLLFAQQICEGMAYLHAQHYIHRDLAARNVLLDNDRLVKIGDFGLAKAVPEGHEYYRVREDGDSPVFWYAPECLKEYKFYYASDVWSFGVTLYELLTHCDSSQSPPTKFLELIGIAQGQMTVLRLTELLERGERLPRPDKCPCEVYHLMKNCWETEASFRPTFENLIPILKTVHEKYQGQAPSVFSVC
T2 sequence (O60674 whole entry): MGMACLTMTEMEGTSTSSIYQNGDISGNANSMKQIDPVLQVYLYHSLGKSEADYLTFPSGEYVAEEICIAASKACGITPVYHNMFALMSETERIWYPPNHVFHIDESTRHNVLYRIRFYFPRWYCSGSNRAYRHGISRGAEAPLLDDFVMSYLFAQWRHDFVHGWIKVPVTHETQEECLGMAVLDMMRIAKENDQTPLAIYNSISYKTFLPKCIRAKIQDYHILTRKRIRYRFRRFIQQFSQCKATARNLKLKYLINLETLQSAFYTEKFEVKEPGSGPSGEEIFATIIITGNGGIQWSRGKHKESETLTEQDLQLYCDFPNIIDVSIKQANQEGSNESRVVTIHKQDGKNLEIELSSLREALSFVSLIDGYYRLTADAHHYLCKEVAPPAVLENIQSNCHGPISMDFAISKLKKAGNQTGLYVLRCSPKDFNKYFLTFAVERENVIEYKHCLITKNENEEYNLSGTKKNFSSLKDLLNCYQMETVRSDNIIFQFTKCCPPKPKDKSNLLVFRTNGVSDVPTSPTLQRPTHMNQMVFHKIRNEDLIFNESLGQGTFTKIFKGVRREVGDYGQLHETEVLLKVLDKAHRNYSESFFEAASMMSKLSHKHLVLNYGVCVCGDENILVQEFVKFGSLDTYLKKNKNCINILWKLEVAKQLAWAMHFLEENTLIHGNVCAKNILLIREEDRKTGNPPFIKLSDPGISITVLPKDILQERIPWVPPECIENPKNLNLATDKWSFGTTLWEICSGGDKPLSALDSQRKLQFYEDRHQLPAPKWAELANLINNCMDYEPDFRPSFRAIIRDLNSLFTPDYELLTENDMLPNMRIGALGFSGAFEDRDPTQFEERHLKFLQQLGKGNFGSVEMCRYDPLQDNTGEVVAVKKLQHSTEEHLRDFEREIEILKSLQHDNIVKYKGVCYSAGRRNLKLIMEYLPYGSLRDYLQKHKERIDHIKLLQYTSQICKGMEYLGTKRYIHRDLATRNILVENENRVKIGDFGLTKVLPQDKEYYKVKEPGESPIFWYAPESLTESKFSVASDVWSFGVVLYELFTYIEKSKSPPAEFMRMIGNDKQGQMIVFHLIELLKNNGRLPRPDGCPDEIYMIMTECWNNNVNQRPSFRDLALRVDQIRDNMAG
T1 sequence (P23458 whole entry): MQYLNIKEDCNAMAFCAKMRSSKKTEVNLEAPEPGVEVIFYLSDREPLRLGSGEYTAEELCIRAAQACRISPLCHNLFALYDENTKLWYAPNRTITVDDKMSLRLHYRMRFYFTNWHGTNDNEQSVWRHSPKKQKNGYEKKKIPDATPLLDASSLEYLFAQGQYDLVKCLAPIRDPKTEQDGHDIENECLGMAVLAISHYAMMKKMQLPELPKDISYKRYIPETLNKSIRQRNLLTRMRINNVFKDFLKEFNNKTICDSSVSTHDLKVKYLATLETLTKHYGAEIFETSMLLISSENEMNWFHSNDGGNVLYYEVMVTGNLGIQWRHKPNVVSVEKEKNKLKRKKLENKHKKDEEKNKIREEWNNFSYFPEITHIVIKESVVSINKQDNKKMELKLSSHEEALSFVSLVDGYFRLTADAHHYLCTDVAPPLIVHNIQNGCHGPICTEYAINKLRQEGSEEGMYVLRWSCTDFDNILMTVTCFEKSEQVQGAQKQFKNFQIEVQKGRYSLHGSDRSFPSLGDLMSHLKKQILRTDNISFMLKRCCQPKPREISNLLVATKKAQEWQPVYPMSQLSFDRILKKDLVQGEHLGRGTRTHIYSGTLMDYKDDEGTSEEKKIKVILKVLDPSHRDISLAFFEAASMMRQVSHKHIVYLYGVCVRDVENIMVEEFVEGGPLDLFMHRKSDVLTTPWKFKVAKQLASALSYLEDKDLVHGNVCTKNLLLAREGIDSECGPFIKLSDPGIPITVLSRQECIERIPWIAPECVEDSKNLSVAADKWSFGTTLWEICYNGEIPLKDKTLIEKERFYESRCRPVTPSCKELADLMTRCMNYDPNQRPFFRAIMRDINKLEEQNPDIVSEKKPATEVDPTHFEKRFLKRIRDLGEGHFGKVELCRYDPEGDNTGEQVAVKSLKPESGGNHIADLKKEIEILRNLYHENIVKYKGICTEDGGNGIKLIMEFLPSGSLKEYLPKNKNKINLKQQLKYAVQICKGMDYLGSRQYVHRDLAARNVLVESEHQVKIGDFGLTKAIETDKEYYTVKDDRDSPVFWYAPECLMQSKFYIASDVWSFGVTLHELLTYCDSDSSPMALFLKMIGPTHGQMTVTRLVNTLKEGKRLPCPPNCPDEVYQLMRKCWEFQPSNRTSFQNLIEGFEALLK
Procedure for Human JAK2: (§1) Human-derived JAK1, JAK2, JAK3 and TYK2 (Millipore, Germany) were used as kinases. Each kinase was diluted with an appropriate buffer as described below, and then mixed with reaction reagents.
(§2) 3-morpholinopropane-1-sulfonic acid (MOPS) and EDTA were dissolved in deionized water at a concentration of 20 mM and 1 mM, respectively, and then 100 μL of β-mercaptoethanol, 10 μL of Brij-35™, 5 mL of glycerol, and 100 mg of bovine serum albumin (BSA), each per 100 mL of the solution, were added to the solution, thereby preparing a dilution buffer for JAK2, JAK3, and TYK2.
(§3) Each compound was dissolved in a 100%-DMSO solution at a concentration of about 50 μM. This prepared solution was reacted with reaction reagents in each well of a 96-well plate until a final concentration of the compound reached 1 μM. A detailed experimental method for each kinase is as follows.
(§4) After reaction for about 40 minutes at room temperature, the reaction was stopped by adding 5 uL of a 3% (v/v) phosphoric acid solution.
(§5) The inhibitory levels (% inhibition) represent a percentage of reduction in phosphorylation activity in each test group with respect to the phosphorylation activity of a corresponding kinase in a negative control group lacking any of the compounds synthesized in the examples. % inhibition=[(Scintillation value of Test compound non-treatment group−Scintillation value of Test compound treatment group)/(Scintillation value of Test compound non-treatment group)]×100
Procedure for Human TYK2: as §1, §2, §3, §4, §5

In the case of `CN(c1ncnc2[nH]ccc12)[C@@H]1CCCN(S(=O)(=O)c2cccc(C#N)c2)C1` [Example 41, (R)-3-((3-(methyl(7H-pyrrolo[2,3-d]pyrimidine-4-yl)amino)piperidine-1-yl)sulfonyl)benzonitrile], the inhibition at 1 µM at Human JAK1 worked out at 92%; on Human JAK2, 64%; at Human JAK3, 39%; on Human TYK2, 79%. Besides, the JAK1/JAK2 at Human JAK1 is 1.44.
Taken in the same sequence, the figures for `CN(c1ncnc2[nH]ccc12)[C@H]1CN(C(=O)CC#N)CC1(C)C` [Example 43, (R)-3-(3,3-dimethyl-4-(methyl(7H-pyrrolo[2,3-d]pyrimidine-4-yl)amino)pyrrolidine-1-yl)-3-oxopropanenitrile] were 86%, 19%, 36%, 38% and 4.53.
For the compound `CN(c1ncnc2[nH]ccc12)[C@@H]1CCN(S(=O)(=O)c2ccc(C(F)(F)F)cc2)C1` [Example 27, (R)—N-methyl-N-(1-((4-(trifluoromethyl)phenyl)sulfonyl)pyrrolidine-3-yl)-7H-pyrrolo[2,3-d]pyrimidine-4-amine], the inhibition at 1 µM was 96% on Human JAK1, 21% on Human JAK2, 4% at Human JAK3 and 56% at Human TYK2. Further, the JAK1/JAK2 on Human JAK1 was determined as 4.57.
For `CCS(=O)(=O)N1CC[C@@H](N(C)c2ncnc3[nH]ccc23)C1` [Example 10, (R)—N-(1-(ethylsulfonyl)pyrrolidine-3-yl)-N-methyl-7H-pyrrolo[2,3-d]pyrimidine-4-amine], the inhibition at 1 µM is 94% at Human JAK1, 27% on Human JAK2, 22% on Human JAK3 and 74% on Human TYK2. Moreover, the JAK1/JAK2 on Human JAK1 was determined as 3.48.
`CN(c1ncnc2[nH]ccc12)[C@@H]1CN(C(=O)CC#N)CC1(C)C` [Example 44, (S)-3-(3,3-dimethyl-4-(methyl(7H-pyrrolo[2,3-d]pyrimidine-4-yl)amino)pyrrolidine-1-yl)-3-oxopropanenitrile]: the inhibition at 1 µM at Human JAK1 was 26%; on Human JAK2 it was -8%; at Human JAK3 it was 1%; on Human TYK2 it was -1%. The JAK1/JAK2 entry on Human JAK1 is recorded as “∞”.
Taken in the same sequence, the figures for `N#CCC(=O)N1CCCC(COc2ncnc3[nH]ccc23)C1` (stereo not shown) [Example 47, 3-(3-(((7H-pyrrolo[2,3-d]pyrimidine-4-yl)oxy)methyl)piperidine-1-yl)-3-oxopropanenitrile] were 30%, 10%, 16%, 20% and 3.00.
The matching figures for `N#CCC(=O)N1CCC(Oc2ncnc3[nH]ccc23)CC1` [Example 45, 3-(4-((7H-pyrrolo[2,3-d]pyrimidine-4-yl)oxy)piperidine-1-yl)-3-oxopropanenitrile]: 35%, 5%, 14%, 10% and 7.00.
Taken in the same sequence, the figures for `CN(c1ncnc2[nH]ccc12)[C@@H]1CCN(S(=O)(=O)N2CCOCC2)C1` [Example 30, (R)—N-methyl-N-(1-(morpholinosulfonyl)pyrrolidine-3-yl)-7H-pyrrolo[2,3-d]pyrimidine-4-amine] were 87%, 6%, 13%, 44% and 14.50.
For the compound `CN(c1ncnc2[nH]ccc12)[C@@H]1CCN(S(=O)(=O)c2ccc([N+](=O)[O-])cc2)C1` [Example 23, (R)—N-methyl-N-(1-((4-nitrophenyl)sulfonyl)pyrrolidine-3-yl)-7H-pyrrolo[2,3-d]pyrimidine-4-amine], the inhibition at 1 µM at Human JAK1 was 100%; on Human JAK2 it was 84%; at Human JAK3 it was 31%; at Human TYK2 it was 94%. For the same compound, the JAK1/JAK2 on Human JAK1 was determined as 1.19.
The matching figures for `CN(c1ncnc2[nH]ccc12)[C@@H]1CCN(S(=O)(=O)c2ccccc2C#N)C1` [Example 18, (R)-2-((3-(methyl(7H-pyrrolo[2,3-d]pyrimidine-4-yl)amino)pyrrolidine-1-yl)sulfonyl)benzonitrile]: 97%, 73%, 22%, 81% and 1.33.
Take `CN(c1ncnc2[nH]ccc12)[C@@H]1CCN(S(=O)(=O)c2ccccc2[N+](=O)[O-])C1` [Example 21, (R)—N-methyl-N-(1-((2-nitrophenyl)sulfonyl)pyrrolidine-3-yl)-7H-pyrrolo[2,3-d]pyrimidine-4-amine]: the inhibition at 1 µM turned out to be 93% on Human JAK1, 48% at Human JAK2, 21% at Human JAK3 and 67% at Human TYK2. In addition, the JAK1/JAK2 on Human JAK1 is listed as 1.94.
Taken in the same sequence, the figures for `CN(c1ncnc2[nH]ccc12)[C@@H]1CCN(S(=O)(=O)c2cccc([N+](=O)[O-])c2)C1` [Example 22, (R)—N-methyl-N-(1-((3-nitrophenyl)sulfonyl)pyrrolidine-3-yl)-7H-pyrrolo[2,3-d]pyrimidine-4-amine] were 100%, 97%, 74%, 99% and 1.03.
The matching figures for `CN(c1ncnc2[nH]ccc12)[C@@H]1CCN(S(=O)(=O)c2ccc(C#N)cc2)C1` [Example 20, (R)-4-((3-(methyl(7H-pyrrolo[2,3-d]pyrimidine-4-yl)amino)pyrrolidine-1-yl)sulfonyl)benzonitrile]: 97%, 46%, 9%, 84% and 2.11.
The matching figures for `CN(c1ncnc2[nH]ccc12)[C@@H]1CCN(S(=O)(=O)c2cccc(C#N)c2)C1` [Example 19, (R)-3-((3-(methyl(7H-pyrrolo[2,3-d]pyrimidine-4-yl)amino)pyrrolidine-1-yl)sulfonyl)benzonitrile]: 99%, 81%, 42%, 95% and 1.22.
As for `CN(c1ncnc2[nH]ccc12)[C@@H]1CCN(S(=O)(=O)c2ccc(F)cc2)C1` [Example 17, (R)—N-(1-((4-fluorophenyl)sulfonyl)pyrrolidine-3-yl)-N-methyl-7H-pyrrolo[2,3-d]pyrimidine-4-amine], the inhibition at 1 µM came out at 99% at Human JAK1, 81% at Human JAK2, 29% at Human JAK3 and 92% at Human TYK2. The JAK1/JAK2 at Human JAK1 came out at 1.22.
The matching figures for `CCCCN1CC[C@@H](N(C)c2ncnc3[nH]ccc23)C1` [Example 3, (R)—N-(1-butylpyrrolidine-3-yl)-N-methyl-7H-pyrrolo[2,3-d]pyrimidine-4-amine]: 52%, 6%, 4%, 8% and “∞”.
Taken in the same sequence, the figures for `Cc1ccc(S(=O)(=O)N2CC[C@@H](N(C)c3ncnc4[nH]ccc34)C2)cc1` [Example 25, (R)—N-methyl-N-(1-tosylpyrrolidine-3-yl)-7H-pyrrolo[2,3-d]pyrimidine-4-amine] were 97%, 42%, 10%, 68% and 2.31.
